Reference: patent US20260132132A1, “3A,4,5,6-TETRAHYDRO-1 H-PYRAZOLO[3,4-C]PYRIDIN-7(7AH)-ONE DERIVATIVES AS FACTOR XIIA INHIBITORS” (KALVISTA PHARMACEUTICALS LIMITED, priority 2022, published 2026)

These compounds were tested against T1, Human Factor XIIa (hFXIIa) (Homo sapiens, UniProt P00748) (assay: Determination of Human Factor XIIa (hFXIIa) inhibition, fluorogenic substrate IC50 assay). Details: fluorogenic substrate H-DPro-Phe-Arg-AFC at Km, 25° C., read-out: Human FXIIa IC50.
T1 construct: purchased Enzyme Research Laboratories
T1 sequence (P00748 373-615 limits assumed): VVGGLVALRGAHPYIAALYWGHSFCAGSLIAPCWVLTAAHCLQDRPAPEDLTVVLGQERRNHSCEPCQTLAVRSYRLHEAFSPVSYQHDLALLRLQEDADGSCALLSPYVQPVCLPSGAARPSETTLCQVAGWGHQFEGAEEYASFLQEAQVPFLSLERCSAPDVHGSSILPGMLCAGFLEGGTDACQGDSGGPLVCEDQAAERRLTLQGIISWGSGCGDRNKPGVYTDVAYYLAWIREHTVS
T1 sequence (P00748 20-372 partner limits assumed): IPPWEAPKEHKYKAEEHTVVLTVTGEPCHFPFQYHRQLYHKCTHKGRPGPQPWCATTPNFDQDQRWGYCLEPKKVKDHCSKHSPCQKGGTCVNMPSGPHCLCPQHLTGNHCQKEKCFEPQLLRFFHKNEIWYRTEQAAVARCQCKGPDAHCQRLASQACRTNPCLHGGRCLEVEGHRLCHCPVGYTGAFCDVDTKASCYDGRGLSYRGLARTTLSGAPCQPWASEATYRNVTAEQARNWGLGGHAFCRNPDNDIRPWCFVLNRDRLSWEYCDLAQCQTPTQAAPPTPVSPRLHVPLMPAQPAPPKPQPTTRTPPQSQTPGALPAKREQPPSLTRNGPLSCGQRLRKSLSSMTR
Type: biochemical
Experimental: Determination of Human Factor XIIa (hFXIIa) inhibition
The Km for the cleavage of the substrate by hFXIIa was determined by standard transformation of the Michaelis-Menten equation, with subsequent inhibition assays performed at substrate Km concentration.

Structure (SMILES)	IC50
O=C(NCc1ccccc1)c1nn(-c2cccc(Cl)c2)c2c1CCN(c1ccc3c(c1)CN(CCO)CC3)C2=O [Example 1107, N-benzyl-1-(3-chlorophenyl)-6-(2-(2-hydroxyethyl)-1,2,3,4-tetrahydroisoquinolin-7-yl)-7-oxo-4,5,6,7-tetrahydro-1H-pyrazolo[3,4-c]pyridine-3-carboxamide]	10 to 100 nM
O=C(NCC1CC1)c1nn(-c2cccc(Cl)c2)c2c1CCN(c1cccc(CN3CC4CC4C3)c1)C2=O (centres unmarked) [Example 1073, 6-(3-((3-azabicyclo[3.1.0]hexan-3-yl)methyl)phenyl)-1-(3-chlorophenyl)-N-(cyclopropylmethyl)-7-oxo-4,5,6,7-tetrahydro-1H-pyrazolo[3,4-c]pyridine-3-carboxamide]	1000 to 3000 nM
CN1CCc2ccc(N3CCc4c(C(=O)NC56CC(O)(C5)C6)nn(-c5cccc(Cl)c5)c4C3=O)cc2C1 [Example 1437, 1-(3-chlorophenyl)-N-(3-hydroxybicyclo[1.1.1]pentan-1-yl)-6-(2-methyl-1,2,3,4-tetrahydroisoquinolin-7-yl)-7-oxo-4,5,6,7-tetrahydro-1H-pyrazolo[3,4-c]pyridine-3-carboxamide]	100 to 300 nM
O=C(Cn1nc(-c2cccc(Cl)c2)c2c1CCN(c1ccc3c(c1)CN(CCO)CC3)C2=O)NC1CC1 [Example 4004, 2-(3-(3-chlorophenyl)-5-(2-(2-hydroxyethyl)-1,2,3,4-tetrahydroisoquinolin-7-yl)-4-oxo-4,5,6,7-tetrahydro-1H-pyrazolo[4,3-c]pyridin-1-yl)-N-cyclopropylacetamide]	1000 to 3000 nM
COc1ccc(-n2nc(C(=O)NCc3cnccc3C)c3c2C(=O)N(c2ccc4c(c2)CN(CCO)CC4)CC3)cc1 [Example 2003, 6-(2-(2-hydroxyethyl)-1,2,3,4-tetrahydroisoquinolin-7-yl)-1-(4-methoxyphenyl)-N-((4-methylpyridin-3-yl)methyl)-7-oxo-4,5,6,7-tetrahydro-1H-pyrazolo[3,4-c]pyridine-3-carboxamide]	300 to 1000 nM
O=C(N[C@@H]1CCOC1)c1nn(-c2cccc(Cl)c2)c2c1CCN(c1ccc3c(c1)CN(CCO)CC3)C2=O [Example 1108, (R)-1-(3-chlorophenyl)-6-(2-(2-hydroxyethyl)-1,2,3,4-tetrahydroisoquinolin-7-yl)-7-oxo-N-(tetrahydrofuran-3-yl)-4,5,6,7-tetrahydro-1H-pyrazolo[3,4-c]pyridine-3-carboxamide]	100 to 300 nM
NCCN1CCc2ccc(N3CCc4c(C(=O)NCC5CC5)nn(-c5cccc(Cl)c5)c4C3=O)cc2C1 [Example 1098, 6-(2-(2-aminoethyl)-1,2,3,4-tetrahydroisoquinolin-7-yl)-1-(3-chlorophenyl)-N-(cyclopropylmethyl)-7-oxo-4,5,6,7-tetrahydro-1H-pyrazolo[3,4-c]pyridine-3-carboxamide]	100 to 300 nM
CN1CCc2ccc(N3CCc4c(C(=O)NCC56COC(CO)(C5)C6)nn(-c5cccc(Cl)c5)c4C3=O)cc2C1 [Example 1050, 1-(3-chlorophenyl)-N-((1-(hydroxymethyl)-2-oxabicyclo[2.1.1]hexan-4-yl)methyl)-6-(2-methyl-1,2,3,4-tetrahydroisoquinolin-7-yl)-7-oxo-4,5,6,7-tetrahydro-1H-pyrazolo[3,4-c]pyridine-3-carboxamide]	300 to 1000 nM
Cc1nc2c(C(=O)NCC3CC3)nn(-c3cccc(Cl)c3F)c2c(=O)n1-c1ccc2c(c1)C(=O)N(C)CCO2 [Example 3023, 1-(3-chloro-2-fluorophenyl)-N-(cyclopropylmethyl)-5-methyl-6-(4-methyl-5-oxo-2,3,4,5-tetrahydrobenzo[f][1,4]oxazepin-7-yl)-7-oxo-6,7-dihydro-1H-pyrazolo[4,3-d]pyrimidine-3-carboxamide]	300 to 1000 nM
O=C(NCc1ccccc1)c1nn(-c2cccc(Cl)c2)c2c1CCN(c1cccc(CN3CCCC3)c1)C2=O [Example 1017, N-benzyl-1-(3-chlorophenyl)-7-oxo-6-(3-(pyrrolidin-1-ylmethyl)phenyl)-4,5,6,7-tetrahydro-1H-pyrazolo[3,4-c]pyridine-3-carboxamide]	300 to 1000 nM
NC(=O)CN1CCc2ccc(N3CCc4c(C(=O)NCC5CC5)nn(-c5cccc(Cl)c5)c4C3=O)cc2C1 [Example 1033, 6-(2-(2-amino-2-oxoethyl)-1,2,3,4-tetrahydroisoquinolin-7-yl)-1-(3-chlorophenyl)-N-(cyclopropylmethyl)-7-oxo-4,5,6,7-tetrahydro-1H-pyrazolo[3,4-c]pyridine-3-carboxamide]	1000 to 3000 nM

Next, values leading:

IC50	Structure (SMILES)
1000 to 3000 nM	CCOC(=O)c1nn(-c2cccc(Cl)c2)c2c1CCN(c1cccc(N3CCCC3=O)c1)C2=O [Example 1323, ethyl 1-(3-chlorophenyl)-7-oxo-6-(3-(2-oxopyrrolidin-1-yl)phenyl)-4,5,6,7-tetrahydro-1H-pyrazolo[3,4-c]pyridine-3-carboxylate]
100 to 300 nM	Cn1cc(CNC(=O)c2nn(-c3cccc(Cl)c3)c3c2CCN(c2ccc4c(c2)CN(CCO)CC4)C3=O)cn1 [Example 1133, 1-(3-chlorophenyl)-6-(2-(2-hydroxyethyl)-1,2,3,4-tetrahydroisoquinolin-7-yl)-N-((1-methyl-1H-pyrazol-4-yl)methyl)-7-oxo-4,5,6,7-tetrahydro-1H-pyrazolo[3,4-c]pyridine-3-carboxamide]
10 to 100 nM	Cc1cnccc1CNC(=O)c1nn(-c2cccc(Cl)c2)c2c1CCN(c1ccc3c(c1)CN(CCO)CC3)C2=O [Example 1163, 1-(3-chlorophenyl)-6-(2-(2-hydroxyethyl)-1,2,3,4-tetrahydroisoquinolin-7-yl)-N-((3-methylpyridin-4-yl)methyl)-7-oxo-4,5,6,7-tetrahydro-1H-pyrazolo[3,4-c]pyridine-3-carboxamide]
3000 to 10000 nM	CN(C)C(=O)c1ccnc(N2CCc3c(C(=O)NCC4CC4)nn(-c4cccc(Cl)c4)c3C2=O)c1 [Example 1273, 1-(3-chlorophenyl)-N-(cyclopropylmethyl)-6-(4-(dimethylcarbamoyl)pyridin-2-yl)-7-oxo-4,5,6,7-tetrahydro-1H-pyrazolo[3,4-c]pyridine-3-carboxamide]
100 to 300 nM	CN1CCc2ccc(N3CCc4c(C(=O)NCC5(CO)CCC5)nn(-c5cccc(Cl)c5)c4C3=O)cc2C1 [Example 1049, 1-(3-chlorophenyl)-N-((1-(hydroxymethyl)cyclobutyl)methyl)-6-(2-methyl-1,2,3,4-tetrahydroisoquinolin-7-yl)-7-oxo-4,5,6,7-tetrahydro-1H-pyrazolo[3,4-c]pyridine-3-carboxamide]
10 to 100 nM	COc1cnccc1CNC(=O)c1nn(-c2cccc(Cl)c2)c2c1CCN(c1ccc3c(c1)CN(CCO)CC3)C2=O [Example 1172, 1-(3-chlorophenyl)-6-(2-(2-hydroxyethyl)-1,2,3,4-tetrahydroisoquinolin-7-yl)-N-((3-methoxypyridin-4-yl)methyl)-7-oxo-4,5,6,7-tetrahydro-1H-pyrazolo[3,4-c]pyridine-3-carboxamide]
3000 to 10000 nM	CN1Cc2ccc(N3CCc4c(C(=O)NCC5CC5)nn(-c5cccc(Cl)c5)c4C3=O)cc2C1=O [Example 1192, 1-(3-chlorophenyl)-N-(cyclopropylmethyl)-6-(2-methyl-3-oxoisoindolin-5-yl)-7-oxo-4,5,6,7-tetrahydro-1H-pyrazolo[3,4-c]pyridine-3-carboxamide]
1000 to 3000 nM	CN1CCc2ccc(N3CCc4c(CO)nn(-c5cccc(Cl)c5)c4C3=O)cc2C1=O [Example 1183, 7-(1-(3-chlorophenyl)-3-(hydroxymethyl)-7-oxo-1,4,5,7-tetrahydro-6H-pyrazolo[3,4-c]pyridin-6-yl)-2-methyl-3,4-dihydroisoquinolin-1(2H)-one]
300 to 1000 nM	Cc1n[nH]c(C)c1CNC(=O)c1nn(-c2cccc(Cl)c2)c2c1CCN(c1ccc3c(c1)C(=O)N(C)CC3)C2=O [Example 1268, 1-(3-chlorophenyl)-N-((3,5-dimethyl-1H-pyrazol-4-yl)methyl)-6-(2-methyl-1-oxo-1,2,3,4-tetrahydroisoquinolin-7-yl)-7-oxo-4,5,6,7-tetrahydro-1H-pyrazolo[3,4-c]pyridine-3-carboxamide]
300 to 1000 nM	Cc1cc(CNC(=O)c2nn(-c3cccc(Cl)c3)c3c2CCN(c2cnc4c(c2)C(=O)N(C)CC4)C3=O)nn1C [Example 1303, 1-(3-chlorophenyl)-N-((1,5-dimethyl-1H-pyrazol-3-yl)methyl)-6-(6-methyl-5-oxo-5,6,7,8-tetrahydro-1,6-naphthyridin-3-yl)-7-oxo-4,5,6,7-tetrahydro-1H-pyrazolo[3,4-c]pyridine-3-carboxamide]
300 to 1000 nM	Cc1ccncc1CNC(=O)c1nn(-c2cccc(Cl)c2)c2c1CCN(c1ccc3c(c1)C(=O)NCC3)C2=O [Example 1240, 1-(3-chlorophenyl)-N-((4-methylpyridin-3-yl)methyl)-7-oxo-6-(1-oxo-1,2,3,4-tetrahydroisoquinolin-7-yl)-4,5,6,7-tetrahydro-1H-pyrazolo[3,4-c]pyridine-3-carboxamide]
100 to 300 nM	CCN1CCc2ccc(N3CCc4c(C(=O)NCc5cc(C)n[nH]5)nn(-c5cccc(Cl)c5)c4C3=O)cc2C1 [Example 1086, 1-(3-chlorophenyl)-6-(2-ethyl-1,2,3,4-tetrahydroisoquinolin-7-yl)-N-((3-methyl-1H-pyrazol-5-yl)methyl)-7-oxo-4,5,6,7-tetrahydro-1H-pyrazolo[3,4-c]pyridine-3-carboxamide]
